Assay results reported in patent publication US8492347B2, “Peptide for induction of immune tolerance as treatment for systemic lupus erythematosus” (The Regents of the University of California, priority 2007, dated 2013).

Experiments:
CD4+ CD25− T cells = experiment: suppression of autologous CD4+ CD25− T cells by pCons-induced Treg; format: cell-based, human; conditions: 1:1 ratios
Text: T cells were also expanded and silencing of Foxp3 by transfection with specific siRNA for Foxp3 abrogated the suppressive capacity of the induced T reg by ½ (3rd panel, FIG. 8).
Next, we studied the ability of L-pCons to induce Treg in T cells from the peripheral blood of patients with SLE (36 patients, 32 healthy controls). Stimulatory control peptides B and D are wild peptides from human mAb anti-DNA; peptide A is a nonstimulatory negative control (see, e.g. Kaki et al., Lupus 2004; 13:490-500). […] These expanded cells were regulatory (FIG. 8): they suppressed proliferation and IFNg synthesis by autologous CD4+ CD25− cells in culture. Numbers of CD4+ Foxp3+ T cells were also expanded and silencing of Foxp3 by transfection with specific siRNA for Foxp3 abrogated the suppressive capacity of the induced T reg by ½ (3rd panel, FIG. 8). […] Patients who were anti-DNA negative were unlikely to respond to pCons with expansion of Treg (see, e.g. La Cava et al, Lupus. 2008; 17(5):421-5).

BWF1 mice [1] = experiment: survival and clinical disease in BWF1 mice given L-pCons intravenously; format: in vivo; conditions: 1 mg i.v. monthly from age 10 weeks
Experimental: FIG. 3 provides a graph of data showing the suppression of clinical disease that occurs in BWF1 mice treated monthly from age 10 weeks with 1 mg of L-pCons administered intravenously.
For tolerance induction, ten-to-twelve week-old BWF1 mice received a single i.v. dose of 1 mg of one of the peptides, dissolved in saline, as reported previously (see, e.g. Singh et al., J Clin Invest 1995; 96:2990-6). Controls in selected experiments were either treated with saline or control peptides.
Using 50% mortality times, the lifespan is prolonged 30-32 weeks. […] A similar study has been started with D-pCons administered orally; results are anticipated in 30 weeks. Serum is obtained at regular intervals for anti-DNA testing; urine is tested for proteinuria monthly (when 2+ appears mice are tested weekly), and survival is measured daily.
Since this increase in survival was small (6 weeks), we developed an algorithm based on 435 VH sequence peptides to create an artificial 15-mer peptide containing amino acid sequences which bind to I-Ed (one of the MHC Class II molecules in BWF1) and to be stimulatory for BWF1 T cells—which we called pConsensus or pCons. […] The control artificial 15-mer, pNegative (pNeg) was constructed to bind I-Ed but not stimulate T cells. […]

BWF1 mice [2] = experiment: single adoptive transfer of CD8+ Ti from tolerized mice to irradiated syngeneic recipients; format: in vivo; conditions: single transfer of 10×10^6 CD8+ T cells from spleens of tolerized mice
Text: FIG. 4 provides graphs of data showing the CD8+ Ti induced by i.v. administration of L-pCons are potent in suppressing nephritis (left panel) and prolonging survival in vivo (right panel) (see, e.g. Hahn et al., J Immunol 2005; 175:7728-37).

## FIEWNKLRFRQGLEW [L-pCons]
CD4+ CD25− T cells
  effect of peptide-induced Treg on CD4+ CD25− T cells: suppress proliferation and IFNg production
BWF1 mice [1]
  appearance of IgG anti-DNA in serum and of nephritis: significant delay
  lifespan prolonged, using 50% mortality times: 30-32 weeks
BWF1 mice [2]
  effect of peptide-induced CD8+ Ti on nephritis and survival: potent in suppressing nephritis and prolonging survival in vivo
